Results from publication PMC11505918, “The Epiphyte Bacillus sp. G2112 Produces a Large Diversity of Nobilamide Peptides That Promote Biofilm Formation in Pseudomonads and Mycobacterium aurum” (Biomolecules, 2024).
Where a SMILES comes first, the peptide text is derived from it. Bridges are numbered along the chain shown (N, C = ends). [ ]: non-standard residue; d: D form. The star is where a group is joined. d(aThr) = C[C@@H](O)[C@@H](N)C(=O)O; Isobutyryl = CC(C)C(=O)*; Dhb = C/C=C(\N)C(=O)O; Propionyl = CCC(=O)*

Legend:
Pseudomonas sp. G124 = test: Crystal violet biofilm formation assay, Pseudomonas sp. G124; conditions: crystal violet staining, 0.2 µg/µL, KB medium, 28 °C, 2 d
[1] = tested on: Lysinibacillus sphaericus DSM1867; conditions: for antibiotic activity against L. sphaericus (in words): agar diffusion, 5 µg/hole (Figure S97b); for inhibition zone against L. sphaericus: DSM1867, 0.1 mg/mL
P. syringae pv. glycinea = test: Crystal violet biofilm formation assay, P. syringae pv. glycinea; conditions: crystal violet staining, 0.2 µg/µL, KB medium, 28 °C, 2 d
M. aurum = test: Crystal violet biofilm formation assay, M. aurum; conditions: crystal violet staining, 0.2 µg/µL, KB medium, 28 °C, 2 d
[2] = tested on: matrix metalloproteinase-2 and -9; conditions: lung, gastric, and colorectal cancers; cited from earlier work
[3] = tested on: lung, gastric, and colorectal cancers; conditions: cited from earlier work

What does the source list for nobilamide A [nobilamide A (4)]?
effect on biofilm formation in Pseudomonas sp. G124 (in words) (Pseudomonas sp. G124): strongly induced; antibiotic activity against L. sphaericus (in words) [1]: did not exhibit antimicrobial activity; effect on biofilm formation in P. syringae pv. glycinea (in words) (P. syringae pv. glycinea): strongly induced; effect on biofilm formation in M. aurum (in words) (M. aurum): strongly induced

What does the source list for `C/C=C1\NC(=O)[C@H](C)NC(=O)[C@H](C(C)C)NC(=O)[C@H](NC(=O)[C@H](Cc2ccccc2)NC(=O)[C@@H](CC(C)C)NC(=O)[C@@H](Cc2ccccc2)NC(=O)C(C)C)[C@@H](C)OC1=O` [nobilamide J (9), nobilamide J] (Isobutyryl-[dF][dL]F[d(aThr)]VA[Dhb]; ester 4-C)?
inhibition zone against L. sphaericus [1]: 21.3 mm; antibiotic activity against L. sphaericus (in words) [1]: powerful antibiotic activity

Which results are given for `C/C=C1\NC(=O)[C@H](C)NC(=O)[C@H](C(C)C)NC(=O)[C@H](NC(=O)[C@H](Cc2ccccc2)NC(=O)[C@@H](CC(C)C)NC(=O)[C@@H](Cc2ccccc2)NC(=O)CC)[C@@H](C)OC1=O` [A-3302-A (2), A-3302-A] (Propionyl-[dF][dL]F[d(aThr)]VA[Dhb]; ester 4-C)?
inhibition zone against L. sphaericus [1]: 18.3 mm; antibiotic activity against L. sphaericus (in words) [1]: powerful antibiotic activity

What does the source list for nobilamide W [nobilamide W (22)]?
effect on biofilm formation in Pseudomonas sp. G124 (in words) (Pseudomonas sp. G124): strongly induced; effect on biofilm formation in P. syringae pv. glycinea (in words) (P. syringae pv. glycinea): strongly induced; effect on biofilm formation in M. aurum (in words) (M. aurum): strongly induced

What does the source list for nobilamide S [nobilamide S (18)]?
effect on biofilm formation in Pseudomonas sp. G124 (in words) (Pseudomonas sp. G124): induced biofilm formation; effect on biofilm formation in P. syringae pv. glycinea (in words) (P. syringae pv. glycinea): did not promote biofilm formation

With nobilamide I [nobilamide I (8)] as the molecule, how does the “effect on biofilm formation in Pseudomonas sp. G124 (in words)” value (Pseudomonas sp. G124) read?
The value was “less clear effect”.

What about the “expression of the matrix metalloproteinase-2 and -9 (in words)” value [2] of the same molecule?
The value was “suppressed”.

And the “effect on biofilm formation in P. syringae pv. glycinea (in words)” value (P. syringae pv. glycinea)?
Its value is “worked best”.

And the “effect on biofilm formation in M. aurum (in words)” value (M. aurum)?
Its value is “less clear effect”.

And the “cancer cell motility (in words)” value [3]?
The value was “suppressed”.
